Data set [1] in a line: Solubility of compound in water at 0.8 mg/ml. It counts as physicochemical. The note with it: buffer.
Data set [2] can be described thus: Solubility of compound in saline at 1 mg/ml. The format is physicochemical. The note with it: buffer.
Data set [3] in a line: Solubility of compound in methanol at 1 mg/ml. It counts as physicochemical.
Data set [4] is described as follows: Solubility of compound in water at 1 mg/ml. It counts as physicochemical. The note with it: buffer.
A short description of data set [5]: Solubility of compound in water at 8 mg/ml. It counts as physicochemical. As to conditions: buffer.
Data set [6] can be described thus: Solubility of compound in saline at 0.4 mg/ml. As to conditions: buffer. It counts as physicochemical.
Data set [7] in a line: Solubility of compound in methanol at 3.3 mg/ml. It counts as physicochemical.
For data set [8], the system named is COLO 205. Put plainly: Antitumor activity against Homo sapiens (human) COLO205 xenografted in SCID mouse assessed as inhibition of tumor growth at 7.5 to 10 mg/kg, iv twice daily for 3 days for 2 administered as solution in 2.5% cremophor. It counts as functional, organism-based.
Data set [9] relates to COLO 205. Kind of data set: Antitumor activity against Homo sapiens (human) COLO205 xenografted in SCID mouse assessed as tumor growth at 1 to 5 mg/kg, iv twice daily for 3 days for 2 administered as solution in 2.5% cremophor. The format is functional, organism-based.
Data set [10] deals with COLO 205. Kind of data set: Antitumor activity against Homo sapiens (human) COLO205 xenografted in SCID mouse assessed as inhibition of tumor growth at 2.5 to 10 mg/kg, iv twice daily for 3 days for 2 administered as solution in water. It counts as functional, organism-based.
Data set [11] relates to COLO 205. Kind of data set: Antitumor activity against Homo sapiens (human) COLO205 xenografted in SCID mouse assessed as tumor growth at 10 to 20 mg/kg, iv qd for 5 days for 2 administered as solution in 1% carboxymethy-cellulose. It counts as functional, organism-based.
The subject of data set [12] is COLO 205. Kind of data set: Antitumor activity against Homo sapiens (human) COLO205 xenografted in SCID mouse assessed as tumor growth at 5 to 20 mg/kg, ip 4 times daily for 3 days administered as solution in 1% carboxymethy-cellulose. The format is functional, organism-based.

Structures are written as SMILES. The source made the active and inactive calls. The rule behind the calls is not given here.

This is an account of results in ChEMBL document CHEMBL3045583, “Increasing antitumor activity in vivo by enhancing acridine dimer solubility with salt preparations” (Med Chem Res, 2010).

As for `COc1ccc2nc3cc(Cl)ccc3c(NCCCNCCCNc3c4ccc(Cl)cc4nc4ccc(OC)cc34)c2c1.CS(=O)(=O)O`, the solubility entry in data set [1] is “Insoluble”; in [2], “Insoluble”; in data set [3], “soluble”.

Take `COc1ccc2nc3cc(Cl)ccc3c(NCCCNCCCNc3c4ccc(Cl)cc4nc4ccc(OC)cc34)c2c1` [listing 1 of 2 here]: the solubility entry was “Insoluble” in [4], “Insoluble” in data set [2] and “soluble” in data set [3].

Turning to `CC(=O)O.CC(=O)O.CC(=O)O.COc1ccc2nc3cc(Cl)ccc3c(NCCCNCCCNc3c4ccc(Cl)cc4nc4ccc(OC)cc34)c2c1`, the solubility entry in [2] is “Insoluble”; in data set [5] it was “soluble”; in data set [3] it was “soluble”.

As to `COc1ccc2nc3cc(Cl)ccc3c(NCCCNCCCNc3c4ccc(Cl)cc4nc4ccc(OC)cc34)c2c1.O=C(O)C(F)(F)F.O=C(O)C(F)(F)F.O=C(O)C(F)(F)F`, the solubility result in data set [6] is listed as “soluble”; in [7] it was “soluble”; in data set [4] it was “Insoluble”.

As for `COc1ccc2nc3cc(Cl)ccc3c(NCCCNCCCNc3c4ccc(Cl)cc4nc4ccc(OC)cc34)c2c1` [listing 2 of 2 here], the TGI result with COLO 205 [8] and with COLO 205 [10] was “Active” in each case. Also, the result in the data set on COLO 205 [9], in the data set with COLO 205 [11] and in the data set on COLO 205 [12] was inactive.
